Where a name gives a salt, the structure may show the parent alone.

Among the data in US9546164B2 (GENENTECH, INC., priority 2013, dated 2017) are IC50 values, retold here.

In one test the target is hNav1.7 (Homo sapiens (Human), UniProt Q15858). Description: Tritiated sulfonamide competitive binding to membranes from cells expressing hNav1.7 and the β1 subunit.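 Also: Filter-bound radioactivity counted by liquid scintillation, nonspecific binding defined with excess unlabelled ligand, IC50 fitted to percent inhibition of specific binding.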
Chain of hNav1.7 (Q15858 other isoform, or with tags, fused parts or gaps): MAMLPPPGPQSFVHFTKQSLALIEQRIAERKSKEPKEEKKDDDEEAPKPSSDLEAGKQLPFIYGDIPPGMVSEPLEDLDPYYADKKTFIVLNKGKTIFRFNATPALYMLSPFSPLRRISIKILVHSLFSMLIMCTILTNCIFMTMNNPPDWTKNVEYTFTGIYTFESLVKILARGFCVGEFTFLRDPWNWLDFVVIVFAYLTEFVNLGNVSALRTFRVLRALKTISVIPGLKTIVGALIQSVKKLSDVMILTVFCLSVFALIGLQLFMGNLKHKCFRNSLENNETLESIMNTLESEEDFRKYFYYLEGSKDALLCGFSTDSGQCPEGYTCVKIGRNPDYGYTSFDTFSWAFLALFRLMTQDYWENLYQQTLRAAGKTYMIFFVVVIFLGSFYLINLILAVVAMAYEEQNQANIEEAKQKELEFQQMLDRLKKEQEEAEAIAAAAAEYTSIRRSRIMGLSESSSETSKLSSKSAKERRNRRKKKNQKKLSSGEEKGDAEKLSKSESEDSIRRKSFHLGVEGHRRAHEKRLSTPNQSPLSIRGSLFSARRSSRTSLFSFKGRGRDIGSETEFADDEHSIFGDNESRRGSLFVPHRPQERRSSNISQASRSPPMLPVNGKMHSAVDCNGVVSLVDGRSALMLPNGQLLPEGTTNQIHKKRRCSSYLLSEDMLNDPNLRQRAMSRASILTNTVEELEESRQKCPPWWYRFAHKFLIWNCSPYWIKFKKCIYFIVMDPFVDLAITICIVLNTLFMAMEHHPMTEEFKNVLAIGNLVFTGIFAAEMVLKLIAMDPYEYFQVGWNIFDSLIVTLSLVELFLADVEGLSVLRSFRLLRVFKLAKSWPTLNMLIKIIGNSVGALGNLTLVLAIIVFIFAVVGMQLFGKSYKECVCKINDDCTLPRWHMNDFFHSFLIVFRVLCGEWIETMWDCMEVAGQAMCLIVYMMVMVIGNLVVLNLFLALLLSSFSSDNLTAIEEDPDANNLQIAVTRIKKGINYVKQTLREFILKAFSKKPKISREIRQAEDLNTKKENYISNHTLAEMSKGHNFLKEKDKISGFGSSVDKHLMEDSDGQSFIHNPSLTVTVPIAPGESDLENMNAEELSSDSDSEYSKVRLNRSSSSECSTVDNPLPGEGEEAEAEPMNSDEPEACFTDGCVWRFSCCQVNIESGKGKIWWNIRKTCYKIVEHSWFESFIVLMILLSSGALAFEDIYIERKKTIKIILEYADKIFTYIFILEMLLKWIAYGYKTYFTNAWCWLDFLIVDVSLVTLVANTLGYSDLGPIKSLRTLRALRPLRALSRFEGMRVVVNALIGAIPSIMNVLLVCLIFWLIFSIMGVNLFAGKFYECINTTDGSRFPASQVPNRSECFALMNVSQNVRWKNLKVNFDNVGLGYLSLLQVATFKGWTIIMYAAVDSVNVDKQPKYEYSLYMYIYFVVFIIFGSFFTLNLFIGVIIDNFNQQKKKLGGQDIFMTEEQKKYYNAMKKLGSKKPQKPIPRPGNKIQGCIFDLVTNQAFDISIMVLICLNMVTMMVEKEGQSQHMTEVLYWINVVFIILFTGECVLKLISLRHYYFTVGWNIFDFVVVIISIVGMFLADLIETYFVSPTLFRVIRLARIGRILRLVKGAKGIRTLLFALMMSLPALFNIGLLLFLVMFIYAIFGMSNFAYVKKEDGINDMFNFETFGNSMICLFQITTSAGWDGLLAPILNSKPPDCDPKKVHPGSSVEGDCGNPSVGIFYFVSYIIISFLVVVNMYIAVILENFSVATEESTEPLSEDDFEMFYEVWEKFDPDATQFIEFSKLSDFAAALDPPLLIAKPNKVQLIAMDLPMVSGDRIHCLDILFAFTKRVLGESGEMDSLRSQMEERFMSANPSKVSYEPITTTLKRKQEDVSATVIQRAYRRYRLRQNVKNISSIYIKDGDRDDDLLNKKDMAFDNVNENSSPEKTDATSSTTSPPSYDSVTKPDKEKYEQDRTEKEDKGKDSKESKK
Chain of hNav1.7 (Q07699 19-218 partner): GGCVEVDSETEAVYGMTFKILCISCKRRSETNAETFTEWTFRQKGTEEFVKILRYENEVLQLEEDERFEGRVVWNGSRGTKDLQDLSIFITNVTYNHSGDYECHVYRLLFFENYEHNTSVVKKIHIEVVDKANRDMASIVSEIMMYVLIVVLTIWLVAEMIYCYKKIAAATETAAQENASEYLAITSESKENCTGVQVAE
Conditions: not given
`O=C(NS(=O)(=O)N1CCC1)c1cc(C2CC2)c(O[C@@H]2CCCN(Cc3ccc(Cl)c(Cl)c3)C2)cc1F` [Example 19, (R)—N-(azetidin-1-ylsulfonyl)-5-cyclopropyl-4-((1-(3,4-dichlorobenzyl)piperidin-3-yl)oxy)-2-fluorobenzamide] gave an IC50 of 4.9 nM.
On the same count and under the same terms, for `CC1(C)CN(Cc2cc(F)c(C(=O)NS(=O)(=O)C3CC3)cc2C2CC2)CCC1Oc1cc(C(F)(F)F)c(Cl)cn1` (stereo not shown) [Example 562, 4-((4-((5-chloro-4-(trifluoromethyl)pyridin-2-yl)oxy)-3,3-dimethylpiperidin-1-yl)methyl)-5-cyclopropyl-N-(cyclopropylsulfonyl)-2-fluorobenzamide, trifluoroacetic acid salt] the value was 3.1 nM; for `O=C(NS(=O)(=O)N1CCC1)c1cc(C2CC2)c(O[C@@H]2CCCN(Cc3cc(Cl)cc(Cl)c3)C2)cc1F` [Example 5, (R)—N-(azetidin-1-ylsulfonyl)-5-cyclopropyl-4-((1-(3,5-dichlorobenzyl)piperidin-3-yl)oxy)-2-fluoroenzamide], 7.1 nM.

Staying with this test, now noted: read-out: Ligand Binding Assay; 100 pM [3H]compound, membranes with hNav1.7 and β1 subunit, 18 h, room temperature.
As to `C[C@@H]1CC[C@@H](Oc2cc(F)c(C(=O)NS(=O)(=O)N3CCC3)cc2C2CC2)CN1Cc1ccc(F)cc1Cl` [Example 322, N-(azetidin-1-ylsulfonyl)-4-(((3R,6R)-1-(2-chloro-4-fluorobenzyl)-6-methylpiperidin-3-yl)oxy)-5-cyclopropyl-2-fluorobenzamide], the IC50 amounted to 1.9 nM.
The same measure, in the same setting: for `C[C@H](c1ccc(Cl)cc1Cl)N1CCC(COc2cc(F)c(C(=O)NS(C)(=O)=O)cc2C2CC2)CC1` [Example 239, (R)-5-cyclopropyl-4-((1-(1-(2,4-dichlorophenyl)ethyl)piperidin-4-yl)methoxy)-2-fluoro-N-(methylsulfonyl)benzamide] the value was 3.4 nM; for `O=C(NS(=O)(=O)C1CC1)c1cc(C2CC2)c(OCC2CCN(S(=O)(=O)c3cc(Cl)cc(Cl)c3)CC2)cc1F` [Example 275, 5-Cyclopropyl-N-(cyclopropylsulfonyl)-4-((1-((3,5-dichlorophenyl)sulfonyl)piperidin-4-yl)methoxy)-2-fluorobenzamide], 6.9 nM.
On to `CS(=O)(=O)NC(=O)c1cc(C2CC2)c(OCC2CCN(Cc3nc(-c4ccccc4Cl)no3)CC2)cc1F` [Example 410, 4-((1-((3-(2-chlorophenyl)-1,2,4-oxadiazol-5-yl)methyl)piperidin-4-yl)methoxy)-5-cyclopropyl-2-fluoro-N-(methylsulfonyl)benzamide, trifluoroacetic acid salt], for which the IC50 was 10.9 nM.
Same read-out and setting: with `CS(=O)(=O)NC(=O)c1cc(C2CC2)c(OC[C@@H]2C[C@H]3CC[C@@H](C2)N3Cc2cc(C(F)(F)F)ccc2Cl)cc1F` [Example 399, 4-(((1R,3S,5S)-8-(2-chloro-5-(trifluoromethyl)benzyl)-8-azabicyclo[3.2.1]octan-3-yl)methoxy)-5-cyclopropyl-2-fluoro-N-(methylsulfonyl)benzamide, trifluoroacetic acid salt] the figure was 4.6 nM; with `CS(=O)(=O)NC(=O)c1cc(C2CC2)c(OCC2CCN(C(=O)c3ccccc3C(F)(F)F)CC2)cc1F` [Example 255], 1100 nM.
For `Cc1ccc(CN2CCC[C@@H](Oc3cc(F)c(C(=O)NS(C)(=O)=O)cc3C3CC3)C2)cc1Cl` [Example 435, (R)-4-((1-(3-Chloro-4-methylbenzyl)piperidin-3-yl)oxy)-5-cyclopropyl-2-fluoro-N-(methylsulfonyl)benzamide, trifluoroacetic acid salt], the IC50 amounted to 5.4 nM.
The same measure, in the same setting: with `COC[C@@H](c1cc(Cl)cc(Cl)c1)N1CCC(C)(COc2cc(F)c(C(=O)NS(C)(=O)=O)cc2C2CC2)CC1` (single isomer, unassigned) [Example 172] the figure was 3.9 nM.
On the same count and under the same terms, with `COC[C@](C)(c1cc(Cl)cc(Cl)c1)N1CCC(COc2cc(F)c(C(=O)NS(C)(=O)=O)cc2C2CC2)CC1` (single isomer, unassigned) [Example 202] the figure was 1.6 nM; with `CS(=O)(=O)NC(=O)c1cc(C2CC2)c(OCC2CCN(C(=O)c3cccc(Cl)c3)CC2)cc1F` [Example 195, 4-((1-(3-Chlorobenzoyl)piperidin-4-yl)methoxy)-5-cyclopropyl-2-fluoro-N-(methylsulfonyl)benzamide], 350 nM; with `CS(=O)(=O)NC(=O)c1cc(C2CC2)c(OCC2CCN(C(c3ccc(F)cc3)c3ccc(F)cc3)CC2)cc1F` [Example 418, 4-((1-(bis(4-fluorophenyl)methyl)piperidin-4-yl)methoxy)-5-cyclopropyl-2-fluoro-N-(methylsulfonyl)benzamide, trifluoroacetic acid salt], 3.2 nM.
The same measure, in the same setting: with `CS(=O)(=O)NC(=O)c1cc(C2CC2)c(OCC2CCN(C(c3ccc(F)cc3Cl)C(F)(F)F)CC2)cc1F` (stereo not shown) [Example 300, 4-((1-(1-(2-chloro-4-fluorophenyl)-2,2,2-trifluoroethyl)piperidin-4-yl)methoxy)-5-cyclopropyl-2-fluoro-N-(methylsulfonyl)benzamide] the figure was 1.6 nM; with `CS(=O)(=O)NC(=O)c1cc(C2CC2)c(O[C@@H]2CCCN(Cc3cc(F)ccc3C(F)(F)F)C2)cc1F` [Example 318, (R)-5-cyclopropyl-2-fluoro-4-((1-(5-fluoro-2-(trifluoromethyl)benzyl)piperidin-3-yl)oxy)-N-(methylsulfonyl)benzamide], 2.6 nM; with `CS(=O)(=O)NC(=O)c1cc(C2CC2)c(OCC2CCN(C(c3ccc(Cl)cc3)c3ccc(Cl)cc3)CC2)cc1F` [Example 362, 4-((1-(bis(4-chlorophenyl)methyl)piperidin-4-yl)methoxy)-5-cyclopropyl-2-fluoro-N-(methylsulfonyl)benzamide, trifluoroacetic acid salt], 2.9 nM.
Take `CS(=O)(=O)NC(=O)c1cc(C2CC2)c(OCC2CCN(C(CF)c3cc(Cl)cc(Cl)c3)CC2)cc1F` (stereo not shown) [Example 358, 5-cyclopropyl-4-((1-(1-(3,5-dichlorophenyl)-2-fluoroethyl)piperidin-4-yl)methoxy)-2-fluoro-N-(methylsulfonyl)benzamide, trifluoroacetic acid salt]: the IC50 was found to be 14 nM.
Same read-out and setting: for `C[C@H](c1cc(Cl)cc(Cl)c1)N1CCC(COc2cc(F)c(C(=O)NS(=O)(=O)N3CCC3)cc2C2CC2)CC1` (single isomer, unassigned) [Example 271] the value was 3.7 nM; for `CS(=O)(=O)NC(=O)c1cc(C2CC2)c(OC[C@H]2CCN(Cc3cc(Cl)cc(Cl)c3)C(=O)C2)cc1F` (single isomer, unassigned) [Example 235], 210 nM; for `O=C(NS(=O)(=O)N1CCC1)c1cc(C2CC2)c(OC[C@H]2CCCN(Cc3ccc(F)cc3Cl)C2)cc1F` [Example 339, (S)—N-(azetidin-1-ylsulfonyl)-4-((1-(2-chloro-4-fluorobenzyl)piperidin-3-yl)methoxy)-5-cyclopropyl-2-fluorobenzamide, trifluoroacetic acid salt], 16.5 nM.

Staying with this test, now noted: read-out: Ligand Binding Assay; 100 pM [3H]compound, membranes with hNav1.7 and β1 subunit, 18 h, room temperature; trifluoroacetic acid salt.
Consider `CS(=O)(=O)NC(=O)c1cc(C2CC2)c(CN2[C@@H]3CC[C@H]2C[C@@H](Oc2ncc(C(F)(F)F)cc2Cl)C3)cc1F` [Example 552, 4-(((1R,3r,5S)-3-((3-chloro-5-(trifluoromethyl)pyridin-2-yl)oxy)-8-azabicyclo[3.2.1]octan-8-yl)methyl)-5-cyclopropyl-2-fluoro-N-(methylsulfonyl)benzamide, trifluoroacetic acid salt], for which the IC50 came to 7 nM.
